Data reported in patent US20260109707A1, “HETEROBIFUNCTIONAL COMPOUNDS AND METHODS OF TREATING DISEASE” (Halda Therapeutics OpCo. Inc., priority 2022, published 2026).
Like-named read-outs stand apart in the source and are kept apart here.

Assays:
VCaP cells = experiment: Cellular growth inhibition assay for VCaP cells (CellTiter-Glo, 72 hours); assay type: cell-based, human
In short: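 Luminescent viability signal after 72 h of compound exposure gave GI50 values by four-parameter nonlinear regression. Compounds were added in 0.5% DMSO to cells plated 24 h earlier at 5000/well in DMEM containing 10% FBS.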

[1] = tested on: T-Rex 293 cell line SC3 cells lacking increased expression of androgen receptor protein; experiment: Cellular growth inhibition assay, T-Rex 293 SC3 cells without doxycycline (CellTiter-Glo, 72 hours); assay type: cell-based; conditions: T-Rex 293 cell line SC3 cells not exposed to doxycycline (lacking increased androgen receptor expression)
In short: (§1)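 Growth inhibition is measured in an inducible AR-expressing T-Rex 293 clone, SC3, cultured with or without 10 ng/mL doxycycline in hormone-depleted medium. Test compounds are applied for 72 hours. GI50 values derive from CellTiter-Glo 2.0 signal fitted by four-parameter regression.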

[2] = tested on: T-Rex 293 cell line SC3 cells having increased expression of androgen receptor protein due to exposure to doxycycline; experiment: Cellular growth inhibition assay, T-Rex 293 SC3 cells with doxycycline (CellTiter-Glo, 72 hours); assay type: cell-based; conditions: T-Rex 293 SC3 cells with increased androgen receptor expression due to doxycycline (10 ng/mL)
In short: as §1

GI50 (VCaP cells; Homo sapiens, VCaP, 72 h)	GI50 (VCaP cells)	Structure (SMILES)	GI50 [1]	GI50 ([2]; 72 h)	GI50 [2]	GI50 ([1]; 72 h)
< 500 nM		Cc1sc2c(c1C)C(c1ccc(N3CC(C4CCN(c5ccc(C(=O)N[C@H]6CC[C@H](Oc7ccc(C#N)c(Cl)c7)CC6)nn5)C4)C3)cc1)=NC1(CC1)c1nnc(C)n1-2 (stereo partly drawn) [I-550]	< 500 nM	< 500 nM		
	< 500 nM	COCC[C@@H]1N=C(c2ccc(C3CCC4(CC3)CCN(c3ccc(C(=O)N[C@H]5CC[C@H](Oc6ccc(C#N)c(Cl)c6)CC5)nn3)C4)cc2)c2c(sc(C)c2C)-n2c(C)nnc21 (single isomer, unassigned) [I-619]	> 3000 nM		< 500 nM	
	< 500 nM	Cc1sc2c(c1C)C(c1ccc(C3CCC4(CC3)CCN(c3ccc(C(=O)N[C@H]5CC[C@H](Oc6ccc(C#N)c(Cl)c6)CC5)nn3)C4)cc1)=N[C@@H](Cc1ncco1)c1nnc(C)n1-2 (stereo partly drawn) [I-824, N-((1r,4r)-4-(3-chloro-4-cyanophenoxy)cyclohexyl)-6-(8-(4-((S)-2,3,9-trimethyl-6-(oxazol-2-ylmethyl)-6H-thieno[3,2-f][1,2,4]triazolo[4,3-a][1,4]diazepin-4-yl)phenyl)-2-azaspiro[4.5]decan-2-yl)pyridazine-3-carboxamide]	< 500 nM		< 500 nM	
> 3000 nM		Cc1sc2c(c1C)C(c1ccc(C3CCC4(CCCN(c5ccc(C(=O)N[C@H]6CC[C@H](Oc7ccc(C#N)c(Cl)c7)CC6)nn5)C4)CC3)cc1)=NC(C(F)(F)F)c1nnc(C)n1-2 (stereo partly drawn) [I-694]		> 3000 nM		> 3000 nM
	< 500 nM	Cc1sc2c(c1C)C(c1ccc(N3CC4(CC(Cc5ccc(C(=O)N[C@H]6CC[C@H](Oc7ccc(C#N)c(Cl)c7)CC6)nn5)C4)C3)cc1)=NC(C(F)(F)F)c1nnc(C)n1-2 (stereo partly drawn) [I-725]	> 3000 nM		< 500 nM	
	< 500 nM	Cc1sc2c(c1C)C(c1ccc(OCC3CC4(CCCN(c5ccc(C(=O)N[C@H]6CC[C@H](Oc7ccc(C#N)c(Cl)c7)CC6)nn5)C4)C3)cn1)=NC1(CC1)c1nnc(C)n1-2 (stereo partly drawn) [I-597]	> 3000 nM		< 500 nM	
> 3000 nM		Cc1sc2c(c1C)C(c1ccc(CC3CC4(CCCN(c5ccc(C(=O)N[C@H]6CC[C@H](Oc7ccc(C#N)c(Cl)c7)CC6)nn5)C4)C3)cn1)N[C@@H](Cc1ncco1)c1nnc(C)n1-2 (stereo partly drawn) [I-642]		< 500 nM		> 3000 nM
500 to 1500 nM		CCNC(=O)C[C@@H]1N=C(c2ccc(OC3CN(CC4CCN(c5ccc(C(=O)N[C@H]6CC[C@H](Oc7ccc(C#N)c(Cl)c7)CC6)nn5)CC4)C3)cc2)c2c(sc(C)c2C)-n2c(C)nnc21 [I-45]		< 500 nM		500 to 1500 nM
< 500 nM		Cc1sc2c(c1C)C(c1ccc(CCCC3CCCN(c4ccc(C(=O)N[C@H]5CC[C@H](Oc6ccc(C#N)c(Cl)c6)CC5)nn4)CC3)cc1)=N[C@@H](C)c1nnc(C)n1-2 (stereo partly drawn) [I-669]	> 3000 nM	< 500 nM		
< 500 nM		CC[C@@H]1N=C(c2ccc(N3CCC(Cc4ccc(C(=O)N[C@H]5CC[C@H](Oc6ccc(C#N)c(Cl)c6)CC5)nn4)CC3)cc2)c2c(sc(C)c2C)-n2c(C)nnc21 [I-614]		< 500 nM		500 to 1500 nM
	< 500 nM	Cc1sc2c(c1C)C(c1ccc(COC3CCC4(CCCN(c5ccc(C(=O)N[C@H]6CC[C@H](Oc7ccc(C#N)c(Cl)c7)CC6)nn5)C4)C3)cc1)=N[C@@H](C)c1nnc(C)n1-2 (stereo partly drawn) [I-625]	< 500 nM		< 500 nM	
	> 3000 nM	Cc1sc2c(c1C)C(c1ccc(C3CCC4(CC3)CCN(c3ccc(C(=O)N[C@H]5CC[C@H](Oc6ccc(C#N)c(Cl)c6)CC5)nn3)C4)nc1)=N[C@@H](C)c1nnc(C)n1-2 (stereo partly drawn) [I-534]	< 500 nM		< 500 nM	
< 500 nM		Cc1sc2c(c1C)C(c1ccc(N3CCC4(CC3)CC(Cc3ccc(C(=O)N[C@H]5CC[C@H](Oc6ccc(C#N)c(Cl)c6)CC5)nn3)C4)cc1)=N[C@@H](C)c1nnc(C)n1-2 [I-605]		< 500 nM		> 3000 nM
< 500 nM		Cc1sc2c(c1C)C(c1ccc(N3CCC4(CCN(c5ccc(C(=O)N[C@H]6CC[C@H](Oc7ccc(C#N)c(Cl)c7)CC6)nn5)CC4)C3)cc1)=N[C@@H](C)c1nnc(C)n1-2 [I-641]		< 500 nM		< 500 nM
	< 500 nM	CC[C@@H]1N=C(c2ccc(C3CCC4(CC3)CCN(c3ccc(C(=O)N[C@H]5CC[C@H](Oc6ccc(C#N)c(Cl)c6)CC5)nn3)C4)cc2)c2c(sc(C)c2C)-n2c(C)nnc21 (single isomer, unassigned) [I-634]	500 to 1500 nM		< 500 nM	
500 to 1500 nM		Cc1sc2c(c1C)C(c1ccc(NCC3CCCCN3c3ncc(C(=O)N[C@H]4CC[C@H](Oc5ccc(C#N)c(Cl)c5)CC4)cn3)cc1)=NC(Cc1ncco1)c1nnc(C)n1-2 (stereo partly drawn) [I-787]		< 500 nM		< 500 nM
500 to 1500 nM		Cc1sc2c(c1C)C(c1ccc(N3CC[C@@H](CNc4ncc(C(=O)N[C@H]5CC[C@H](Oc6ccc(C#N)c(Cl)c6)CC5)cn4)C3)cc1)=NC(Cc1ncco1)c1nnc(C)n1-2 (stereo partly drawn) [I-795]		< 500 nM		< 500 nM
< 500 nM		CC1=NN=C2C1c1sc(C)c(C)c1C(c1ccc(N3C[C@@H]4CN(c5ccc(C(=O)N[C@H]6CC[C@H](Oc7ccc(C#N)c(Cl)c7)CC6)nn5)C[C@@H]4C3)cc1)=NC21CC1 (stereo partly drawn) [I-505]		< 500 nM		> 3000 nM
	500 to 1500 nM	Cc1sc2c(c1C)C(c1ccc(N3CCC4(CCN(c5ccc(C(=O)N[C@H]6CC[C@H](Oc7ccc(C#N)c(Cl)c7)CC6)nn5)C4)C3)c(F)c1)=N[C@@H](C)c1nnc(C)n1-2 (stereo partly drawn) [I-731]		< 500 nM		< 500 nM
	> 3000 nM	Cc1sc2c(c1C)C(c1ccc(N3CCC4CN(c5ccc(C(=O)N[C@H]6CC[C@H](Oc7ccc(C#N)c(Cl)c7)CC6)nn5)CCC4C3)cc1)=NC1(CC1)c1nnc(C)n1-2 (stereo partly drawn) [I-564]	500 to 1500 nM		< 500 nM	
< 500 nM		Cc1sc2c(c1C)C(c1ccc(OC3CC4(CCCN(c5ccc(C(=O)N[C@H]6CC[C@H](Oc7ccc(C#N)c(Cl)c7)CC6)nn5)C4)C3)cc1)=NCc1nnc(C)n1-2 (stereo partly drawn) [I-473]		< 500 nM		> 3000 nM
	< 500 nM	Cc1sc2c(c1C)C(c1cccc(OC3CC4(CCCN(c5ccc(C(=O)N[C@H]6CC[C@H](Oc7ccc(C#N)c(Cl)c7)CC6)nn5)C4)C3)c1)=N[C@@H](C)c1nnc(C)n1-2 (stereo partly drawn) [I-715]	500 to 1500 nM		< 500 nM	
< 500 nM		COC[C@@H]1N=C(c2ccc(CC3CC4(CCN(c5ccc(C(=O)N[C@H]6CC[C@H](Oc7ccc(C#N)c(Cl)c7)CC6)nn5)CC4)C3)cc2)c2c(sc(C)c2C)-n2c(C)nnc21 [I-692]		< 500 nM		< 500 nM
	< 500 nM	Cc1sc2c(c1C)C(c1ccc(OC3CCC4(CCN(c5ccc(C(=O)N[C@H]6CC[C@H](Oc7ccc(C#N)c(Cl)c7)CC6)nn5)C4)C3)cc1)=N[C@@H](C)c1nnc(C)n1-2 (stereo partly drawn) [I-733]		< 500 nM		< 500 nM
	< 500 nM	Cc1sc2c(c1C)C(c1ccc(C#CC3CC(Cc4ccc(C(=O)N[C@H]5CC[C@H](Oc6ccc(C#N)c(Cl)c6)CC5)nn4)C3)cc1)=N[C@@H](Cc1ncco1)c1nnc(C)n1-2 (stereo partly drawn) [I-646]	< 500 nM		< 500 nM	
< 500 nM		COCC[C@@H]1N=C(c2ccc(C3CCC4(CCCN(c5ccc(C(=O)N[C@H]6CC[C@H](Oc7ccc(C#N)c(Cl)c7)CC6)nn5)C4)CC3)cc2)c2c(sc(C)c2C)-n2c(C)nnc21 (stereo partly drawn) [I-656]		< 500 nM		> 3000 nM
